The results in this text go back to patent EP2975033A1, “Improved cysteine-protease inhibitors” (Universitat Jaume I, priority 2014, dated 2016).

By IC50 is commonly meant the concentration at which inhibition is half-maximal.

What all share (format): cell-based
For assay [1], the system named is T. cruzi Tulahuen strain C2C4. Briefly: Activity against T. cruzi in L-6 cells (beta-galactosidase, CPRG). The settings on record: Trypanosoma cruzi, TULAHUEN, L6. How it is done:
(§1) For all the susceptibility assays with parasites and cells, each drug was tested in duplicate and each assay was repeated at least once. • a. Activity against Trypanosoma brucei rhodesiense STIB900. This stock was isolated in 1982 from a human patient in Tanzania and after several mouse passages cloned and adapted to axenic culture conditions (Baltz et al 1985) Minimum Essential Medium (50 µl) supplemented with 25 mM HEPES, 1g/l additional glucose, 1% MEM non-essential amino acids (100x), 0.2 mM 2-mercaptoethanol, 1 mM Na-pyruvate and 15% heat inactivated horse serum was added to each well of a 96-well microtiter plate. Serial drug dilutions of eleven 3-fold dilution steps covering a range from 100 to 0.002 µg/ml were prepared. Then 4x10^3 bloodstream forms of T. b. rhodesiense STIB 900 in 50 µl was added to each well and the plate incubated at 37 °C under a 5 % CO2 atmosphere for 70 h. 10 µl Alamar Blue (resazurin, 12.5 mg in 100 ml double-distilled water) was then added to each well and incubation continued for a further 2-4 h (Raz et al 1997). Then the plates were read with a Spectramax Gemini XS microplate fluorometer (Molecular Devices Cooperation, Sunnyvale, CA, USA) using an excitation wave length of 536 nm and an emission wave length of 588 nm. The IC50 values were calculated by linear regression (Huber 1993) from the sigmoidal dose inhibition curves using SoftmaxPro software (Molecular Devices Cooperation, Sunnyvale, CA, USA). Melarsoprol (Arsobal Sanofi-Aventis, received from WHO) is used as control. • b. Activity against T. cruzi. Rat skeletal myoblasts (L-6 cells) were seeded in 96-well microtitre plates at 2000 cells/well in 100 µL RPMI 1640 medium with 10% FBS and 2 mM I-glutamine. After 24 h the medium was removed and replaced by 100 µl per well containing 5000 trypomastigote forms of T. cruzi Tulahuen strain C2C4 containing the β-galactosidase (Lac Z) gene (Buckner et al. 1996). After 48 h the medium was removed from the wells and replaced by 100 µl fresh medium with or without a serial drug dilution of eleven 3-fold dilution steps covering a range from 100 to 0.002 µg/ml. After 96 h of incubation the plates were inspected under an inverted microscope to assure growth of the controls and sterility. Then the substrate CPRG/Nonidet (50 µl) was added to all wells. A color reaction developed within 2-6 h and could be read photometrically at 540 nm. Data were analyzed with the graphic programme Softmax Pro (Molecular Devices), which calculated IC50 values by linear regression (Huber 1993) from the sigmoidal dose inhibition curves. […] Activity against L. donovani axenic amastigotes. Amastigotes of L. donovani strain MHOM/ET/67/L82 were grown in axenic culture at 37 °C in SM medium (Cunnigham et al. 1977) at pH 5.4 supplemented with 10% heat-inactivated fetal bovine serum under an atmosphere of 5% CO2 in air. One hundred microlitres of culture medium with 10^5 amastigotes from axenic culture with or without a serial drug dilution were seeded in 96-well microtitre plates. Serial drug dilutions of eleven 3-fold dilution steps covering a range from 90 to 0.002 µg/ml were prepared. After 70 h of incubation the plates were inspected under an inverted microscope to assure growth of the controls and sterile conditions. 10 µl of Alamar Blue (12.5 mg resazurin dissolved in 100 ml distilled water) (Mikus and Steverdig. 2000) were then added to each well and the plates incubated for another 2 h. Then the plates were read with a Spectramax Gemini XS microplate fluorometer (Molecular Devices Cooperation, Sunnyvale, CA, USA) using an excitation wave length of 536 nm and an emission wave length of 588 nm. Data were analyzed using the software Softmax Pro (Molecular Devices Cooperation, Sunnyvale, CA, USA). Decrease of fluorescence (= inhibition) was expressed as percentage of the fluorescence of control cultures and plotted against the drug concentrations. From the sigmoidal inhibition curves the IC50 values were calculated. • d.

Assay [2] has as its system Trypanosoma brucei rhodesiense STIB900. Briefly: Activity against Trypanosoma brucei rhodesiense STIB900 (Alamar Blue). The settings on record: Trypanosoma brucei. How it is done: as §1
For assay [3], the system named is L. donovani strain MHOM/ET/67/L82. Briefly: Activity against L. donovani axenic amastigotes (Alamar Blue). The note with it: Leishmania donovani. How it is done:
as §1
In general terms: Resazurin is reduced to fluorescent resorufin, in cell work by metabolically active cells.

Assay [4] relates to P. falciparum NF54 strain. Briefly: Activity against P. falciparum, 3H-hypoxanthine incorporation assay. The settings on record: Plasmodium falciparum, NF54.
[5] abbreviates: mean of replicates, read-out: T.cruzi. IC50 mean.
The mark [6] stands for this setting: replicate 1, L-6 cells, 96 h, read-out: T.cruzi. IC50 repl1.
The mark [7] stands for this setting: replicate 2, L-6 cells, 96 h, read-out: T.cruzi. IC50 repl2.
Where [8] appears, read: 70 h, replicate 1, bloodstream forms, 70 h, read-out: T.b.rhod. IC50 repl1.
Where [9] appears, read: 70 h, replicate 2, bloodstream forms, 70 h, read-out: T.b.rhod. IC50 repl2.
Where [10] appears, read: mean of replicates, read-out: T.b.rhod. IC50 mean.
The mark [11] stands for this setting: mean of replicates, read-out: L.don. ax am IC50 mean.
Where [12] appears, read: replicate 1, axenic amastigotes, pH 5.4, 70 h, read-out: L.don. ax am IC50 repl1.
The mark [13] stands for this setting: mean of replicates, read-out: P.falc NF54 IC50 mean.
The mark [14] stands for this setting: replicate 1, erythrocytic stages, read-out: P.falc NF54 IC50 repl1.
Setting [15] is: replicate 2, erythrocytic stages, read-out: P.falc NF54 IC50 repl2.

Converted amounts (≈) assume the structure as drawn. Where two headings read alike, the source gives them in different places.

`CCOC(=O)/C=C/C(=O)[C@H](CCc1ccccc1)NC(=O)[C@H](Cc1ccccc1)NC(=O)OCc1ccccc1` [FGA-44]: the IC50 was 10.9 µg/mL (≈ 20.1 µM) in assay [1] (setting [5]); 7.74 µg/mL (≈ 14.3 µM) in assay [1] (setting [6]); 14.1 µg/mL (≈ 26 µM) in assay [1] (setting [7]); 0.446 µg/mL (≈ 0.822 µM) in assay [2] (setting [8]); 0.564 µg/mL (≈ 1.04 µM) in assay [2] (setting [9]); 0.505 µg/mL (≈ 0.931 µM) in assay [2] (setting [10]). Further, the IC50 in assay [3] (setting [11]) is 6.87 µg/mL (≈ 12.7 µM); in assay [3] (setting [12]) it was 6.87 µg/mL (≈ 12.7 µM); in assay [4] (setting [13]) it was 6.82 µg/mL (≈ 12.6 µM); in assay [4] (setting [14]) it was 7.19 µg/mL (≈ 13.3 µM); in assay [4] (setting [15]) it was 6.44 µg/mL (≈ 11.9 µM).

On to `CCOC(=O)/C=C/C(=O)[C@H](CCc1ccccc1)NC(=O)[C@H](CC(C)C)NC(=O)OCc1ccccc1` [FGA-47], for which the IC50 in assay [1] (setting [5]) amounted to 3.63 µg/mL (≈ 7.14 µM); in assay [1] (setting [6]) it was 5.17 µg/mL (≈ 10.2 µM); in assay [1] (setting [7]) it was 2.09 µg/mL (≈ 4.11 µM); in assay [2] (setting [8]) it was 1.68 µg/mL (≈ 3.3 µM); in assay [2] (setting [9]) it was 0.675 µg/mL (≈ 1.33 µM); in assay [2] (setting [10]) it was 1.18 µg/mL (≈ 2.32 µM). The IC50 came out at 0.048 µg/mL (≈ 0.0944 µM) in assay [3] (setting [11]); 0.044 µg/mL (≈ 0.0865 µM) in assay [3] (setting [12]); 0.052 µg/mL (≈ 0.102 µM) in assay [3] (replicate 2, axenic amastigotes, pH 5.4, 70 h, read-out: L.don. ax am IC50 repl2); 0.821 µg/mL (≈ 1.61 µM) in assay [4] (setting [13]); 0.921 µg/mL (≈ 1.81 µM) in assay [4] (setting [14]); 0.72 µg/mL (≈ 1.42 µM) in assay [4] (setting [15]).
